Experimental data published in publication PMC5882848, “Structural basis of interaction between dimeric cyclophilin 1 and Myb1 transcription factor in Trichomonas vaginalis” (Scientific Reports, 2018).
“Also recorded” adds a separate entry of the source.

Experiments:
parasite = settings: cited from earlier work
Text: In most cases, the biological substrates of these cyclophilins are unknown and extensive structural studies on cyclophilin- substrate interactions have not been reported.

[1] = cited from earlier work
Text: Nuclear translocation of Myb1 is an important step regulating the expression of disease causing ap65–1 gene. […] Moreover, CsA is not specific to any of the isof ...

isoforms of cyclophilins = tested on: isoforms of cyclophilins; set-up: method as in PMID 20676357; settings: cited from earlier work
cyclophilins = settings: binding to the active site; cited from earlier work
Text: Catalytically active cyclophilins with a single cyclophilin domain reported till now are monomeric in nature.

TvCyP1 = assay: NMR ROESY cis/trans isomerization (PPIase) of P107 in Myb1^104–111; type: biochemical, Trichomonas vaginalis
Description: ^1H-TOCSY, ^1H-COSY and ^1H-NOESY were performed at 300 K with a mixing time of 75 ms (TOCSY) and 300 ms (NOESY) on the Myb1^104–111 peptide to complete the assignment of proton resonances. The peptide was dissolved in 20 mM monosodium phosphate, 50 mM NaCl, 0.5 mM NaN3 (pH 6.0) to obtain a concentration of 2 mM. All ROESY experiments were performed at 300 K with 300 ms mixing time. […]

[2] = molecular target: FITC-labeled Myb1^104–111 peptide (Trichomonas vaginalis); assay: fluorescence polarisation
[3] = molecular target: Cyclophilin 1 (TvCyP1) of Trichomonas vaginalis (Trichomonas vaginalis); assay: AUC; sedimentation velocity, 29 μM TvCyP1 (legend: 30 μM), 20 °C, 50,000 rpm; 20 mM monosodium phosphate, 50 mM NaCl, 0.5 mM NaN3, pH 6.0; Sedfit
[4] = molecular target: Cyclophilin 1 (TvCyP1) of Trichomonas vaginalis (Trichomonas vaginalis); assay: SEC-MALS; 300 μg TvCyP1 (3 mg/mL) on ENrich SEC 70 column; 20 mM monosodium phosphate, 50 mM NaCl, 0.5 mM NaN3, pH 6.0, 25 °C

Molecule	anti-parasitic activity (parasite)	immunosuppressive activity [1]	isoform specificity (isoforms of cyclophilins)	inhibition of PPIase activity of cyclophilins (cyclophilins)	inhibition of TvCyP1 isomerase activity (TvCyP1; ROESY, 300 ms mixing time, 300 K, pH 6.0, CsA 22 μM (1.0 molar equivalent), 4.4 mM Myb1^104–111, 22 μM TvCyP1)	inhibition of Myb1^104–111 binding to TvCyP1 active site (TvCyP1; from ROESY experiments, CsA)	Kd [2] [µM]	stoichiometry N [3]	stoichiometry N [4]
cyclosporin A [CsA]	have been found with anti-parasitic activity	deleterious effect of its immunosuppressive activity	not specific to any of the isoforms of cyclophilins	PPIase activity of cyclophilins can be inhibited	hindered catalysis; also recorded: loss of the exchange cross-peaks between cis and trans resonances	can inhibit Myb1^104–111 binding to the active site			
CC[C@H]1C[C@H](C)[C@@]2(NC1=O)O[C@@H](C[C@H](O)[C@@H](C)CC/C=C/C=C(\C)[C@@H]1C/C=C/C=C/[C@H](O)[C@H](C)[C@@H](O)[C@@H](CCC(C)=O)C(=O)N[C@@H](C(C)C)C(=O)N[C@@H](Cc3cccc(O)c3)C(=O)N3CCC[C@H](N3)C(=O)O1)[C@H](C)[C@H](O)[C@@H]2C [sanglifehrin A (SfA), sanglifehrin A]				PPIase activity of cyclophilins can be inhibited					
Cyclophilin 1 (TvCyP1) of Trichomonas vaginalis (enzyme)							16.8	2	2
